The subject of data set [1] is passive cutaneous anaphylactic (PCA) reaction. Kind of data set: Passive cutaneous anaphylactic (PCA) reaction, reagin-allergen combination, in rats. The class given is in vivo. To be noted: Rattus norvegicus; for ED100: intravenous, just before injection of allergen, read-out: ED100 (intravenous dose which produces 100% inhibition of the PCA reaction); for inhibition in vivo at 100 mg/kg: oral dose of 100 mg/kg; for inhibition in vivo at 100 mg/kg / ED50: thirty minutes before intravenous allergen; for ED50: oral, read-out: ED50 (oral dose which produces 50% inhibition of the PCA reaction). The source says:
In pharmacological tests the benzamide derivatives of general formula I suppress the passive cutaneous anaphylactic (PCA) reaction resulting from combination of tissue-fixed reaginic antibodies with the appropriate antigenic material (termed reagin-allergen combination) and carried out in an essentially similar manner to that described by Ogilvie [Nature (Lond.), (1964), 204, 91-92; Immunology, (1967), 12, 112-131]. In the method used to test these compounds sera were obtained from rats which had been infected with larvae of the nematode parasite Nippostrongylus brasiliensis; as a result of the parasitic infestation reaginic antibodies are elaborated in the host mammal and are found in sera removed from such animals. Other, non-infected, rats received intradermal injections of appropriate dilutions of such sera and were then given the allergenic material along with Evans' blue dye intravenously forty-eight hours later.
The allergenic material consisted of supernatant fluid after centrifugation of homogenates of adult Nippostrongylus brasiliensis worms which had been macerated in Tyrode's solution. The sites of PCA reactions were visualised by the effusion of Evan's blue dye from the circulation into those areas as a result of increased capillary permeability caused by the release of biologically-active substances from cells where reagin-allergen combination had occurred. The new compounds when given intravenously to the rats just before injection of allergen, or administered orally thirty minutes before intravenous injection of allergen, were able to prevent the development of the PCA reaction, as shown below in Table I, Table II and Table III.

Data set [2] in a line: Acute oral toxicity in mice. To be noted: mouse, in vivo, highest dose used 1000 mg/kg, read-out: LD50 (doses lethal to 50% of mice tested). The source says:
Mice were each treated orally with one of the compounds of formula I, and they were observed daily until there had been at least 3 consecutive days without any deaths. The LD50 figures obtained (doses lethal to 50% of mice tested) are shown below in Table IV, expressed in mg/kg animal body weight.
The symbol ">" means "greater than" in this specification. Where the LD50 is said to be ">1000," a more precise estimation of the LD50 was not possible because the numbers of deaths was too small, even at the highest dose used, 1000 mg/kg.

A short description of data set [3]: Acute intravenous toxicity in mice. The settings on record: mouse, in vivo, triethanolamine salt (T). The source says:
Mice were each treated intravenously with an aqueous solution of the triethanolamine salt or sodium salt of one of the compounds of formula I, and they were observed until there had been at least 3 consecutive days without any deaths. The LD50 figures obtained (doses lethal to 50% of mice tested) are shown below in Table V, expressed in mg/kg animal body weight. In Table V, "Na" means that the sodium salt was used and "T" means that the triethanolamine salt was used.
The aqueous solutions were prepared as follows:
A mixture of the test compound and water was treated gradually with triethanolamine until complete solution occurred. The solution was then diluted with water to a concentration of test compound of either 1% w/v or 2% w/v.
The test compound was dissolved in aqueous sodium hydroxide (1N) and the solution was brought to pH 8 by treatment with hydrochloric acid. The solution was then diluted with water to a concentration of test compound of 2% w/v.
Various volumes of these solutions were then administered to the mice.

The mark [4] stands for this setting: 1% w/v solution for lower doses, 2% w/v for higher doses.

For the compound `CCCOc1cccc(C(=O)Nc2nnn[nH]2)c1O` [Compound AN, 2-hydroxy-3-propoxy-N-(tetrazol-5-yl)benzamide], in data set [1], the ED100 was 0.5 mg/kg, the inhibition in vivo at 100 mg/kg amounted to 87% and the ED50 amounted to 40 mg/kg. Moreover, in data set [2], the 50% lethal dose (LD50) is greater than 1000 mg/kg. For the same compound, the median lethal dose (LD50) in data set [3] (2% w/v test solution) was 480 mg/kg.

Regarding `CC(=O)c1cc(Cl)cc(C(=O)Nc2nnn[nH]2)c1O` [Compound AU, 3-acetyl-5-chloro-2-hydroxy-N-(tetrazol-5-yl)benzamide], in data set [1], the ED100 came out at 2 mg/kg, the inhibition in vivo at 100 mg/kg amounted to 71% and the ED50 amounted to 1.8 mg/kg. Further, the LD50 in data set [2] is greater than 1000 mg/kg. In addition, the LD50 in data set [3] (2% w/v test solution) stood at 245 mg/kg.

For the compound `CC(=O)c1ccc(O)c(C(=O)Nc2nnn[nH]2)c1` [Compound AV, 5-acetyl-2-hydroxy-N-(tetrazol-5-yl)benzamide], the ED100 in data set [1] came out at 10 mg/kg. Besides, the inhibition in vivo at 100 mg/kg in data set [1] was determined as 16%. Further, the values for the LD50 in data set [2] and in data set [3] (2% w/v test solution) were greater than 1000 mg/kg and 645 mg/kg, respectively.

With `COc1cccc(C(=O)Nc2nnn[nH]2)c1O` [Compound BE, 2-hydroxy-3-methoxy-N-(tetrazol-5-yl)benzamide], in data set [1], the ED100 worked out at 0.2 mg/kg, the inhibition in vivo at 100 mg/kg turned out to be 62% and the ED50 was determined as 18 mg/kg. Besides, the LD50 in data set [2] was greater than 1000 mg/kg. The LD50 in data set [3] (2% w/v test solution) came to 580 mg/kg.

Regarding `O=C(Nc1nnn[nH]1)c1cc(F)ccc1O` [Compound BH, 5-fluoro-2-hydroxy-N-(tetrazol-5-yl)benzamide], in data set [1], the ED100 stood at 1 mg/kg, the inhibition in vivo at 100 mg/kg was determined as 94% and the ED50 amounted to 16 mg/kg. Besides, the 50% lethal dose (LD50) in data set [2] is greater than 1000 mg/kg. In addition, the median lethal dose (LD50) in data set [3] (setting [4]) stood at 500 mg/kg.

As for `CCC(C)c1cc(C(C)=O)c(O)c(C(=O)Nc2nnn[nH]2)c1` (centres unmarked) [Compound BY, 3-acetyl-5-sec-butyl-2-hydroxy-N-(tetrazol-5-yl)benzamide], in data set [1], the ED100 came out at 0.5 mg/kg, the inhibition in vivo at 100 mg/kg was 43% and the ED50 amounted to 1.8 mg/kg. Also, in data set [2], the LD50 is greater than 1000 mg/kg. The LD50 in data set [3] (2% w/v test solution) amounted to 180 mg/kg.

Take `CC(=O)c1cc(C(C)(C)C)cc(C(=O)Nc2nnn[nH]2)c1O` [Compound BZ, 3-acetyl-5-tert-butyl-2-hydroxy-N-(tetrazol-5-yl)benzamide]: in data set [1], the ED100 is 0.5 mg/kg, the inhibition in vivo at 100 mg/kg was found to be 59% and the ED50 is 2.6 mg/kg. For the same compound, the 50% lethal dose (LD50) in data set [2] was greater than 1000 mg/kg. Further, the LD50 in data set [3] (2% w/v test solution) is 240 mg/kg.

Turning to `CCCc1cc(C(C)=O)c(O)c(C(=O)Nc2nnn[nH]2)c1` [Compound CD, 3-acetyl-2-hydroxy-5-propyl-N-(tetrazol-5-yl)benzamide], in data set [1], the ED100 came to 0.1 mg/kg and the inhibition in vivo at 100 mg/kg is 64%. The median lethal dose (LD50) in data set [2] is greater than 1000 mg/kg. Further, the LD50 in data set [3] (2% w/v test solution) was 250 mg/kg.

`CCCC(=O)c1cc(CC)cc(C(=O)Nc2nnn[nH]2)c1O` [Compound CG, 3-butyryl-5-ethyl-2-hydroxy-N-(tetrazol-5-yl)benzamide]: in data set [1], the ED100 worked out at 0.1 mg/kg, the inhibition in vivo at 100 mg/kg is 55% and the ED50 worked out at 2.2 mg/kg. Moreover, the LD50 in data set [2] was greater than 1000 mg/kg. Further, in data set [3] (setting [4]), the LD50 stood at 270 mg/kg.

With `CC(=O)c1cc([N+](=O)[O-])cc(C(=O)Nc2nnn[nH]2)c1O` [Compound CS, 3acetyl-2-hydroxy-5-nitro-N-(tetrazol-5-yl)benzamide], in data set [1], the ED100 was 0.1 mg/kg and the inhibition in vivo at 100 mg/kg worked out at 54%. Besides, the 50% lethal dose (LD50) in data set [2] is greater than 1000 mg/kg. The 50% lethal dose (LD50) in data set [3] (2% w/v test solution) was 780 mg/kg.

The record behind these values is US4146631A, “Benzamide derivatives” (May & Baker Limited, priority 1976, dated 1979).
